We go through two molecules from patent US20220041578A1, “ISOINDOLINE COMPOUND, AND PREPARATION METHOD, PHARMACEUTICAL COMPOSITION, AND APPLICATION OF ISOINDOLINE COMPOUND” (Shanghai Institute of Meteria Medica, Chinese Academy of …, priority 2018, published 2022).

Usually inhibition stands for how much of the control response was suppressed. By IC50 is commonly meant the midpoint of a concentration-inhibition curve.

For assay [1], the system named is IFNγ. The experiment in a line: IFNγ expression change in anti-human CD3 stimulated PBMC (ELISA). The assay is classed as cell-based. The settings on record: compound 10 nM, anti-human CD3 10 ug/ml, 24 hours. On the procedure: (§1) All operations of this experiment were carried out according to the conventional experimental process of this kind of experiment at present. Peripheral blood from healthy volunteers was collected by routine standard procedure and cultured in 1640 medium (+10% FBS) to obtain PBMC. After recovery, PBMC was centrifuged and resuspended in serum-free medium. After counting, adjusted the density to be 6.25×10^5/ml; then inoculated 160 ul to a 96-well plate, 2 holes each, 1×10^5/well; 20 ul 10× compound and DMSO were added, and incubated for 1 hour in an incubator; then 20 ul 10× anti-human CD3 was added resulting the final concentration of 10 ug/ml and incubated in an incubator for 24 hours. Centrifuged the cell plate at 1500 rpm and aspirated 50 ul supernatant according to the ELISA operation. After operating according to the kit, a microplate reader was used to read at 450 nm. The concentration of compound was 10 nM, and DMSO was added as control group. Materials used in this experiment: 96 well plate (Corning, #3599), ELISA kit (Thermo), LPS (Sigma, USA). It was found from the test results of the following table that the compounds of the examples of the present invention could be used to regulate the expression of IFNγ.
(In an ELISA, binding on a coated surface is turned into a signal by an enzyme label.)

In assay [2] the test system is TNF-α. The assay can be described thus: TNF-α activity inhibition experiment in LPS-stimulated PBMC (ELISA). The assay is classed as cell-based. The note with it: Homo sapiens, compound 10 nM, LPS 1 ug/ml, 72 hours, read-out: Inhibition rate of TNF-a (%). On the procedure: as §1, with “plate,” for “plate, 2 holes each,”, “ul 10 XLPS” for “ul 10× anti-human CD3”, “of 1” for “of 10”, “for 72” for “for 24”, “USA).” for “USA). It was found from the test results of the following table that the compounds of the examples of the present invention could be used to regulate the expression of IFNγ.”

In assay [3] the test system is IL-2. The assay can be described thus: IL-2 expression change in anti-human CD3 stimulated PBMC (ELISA). The assay is classed as cell-based. The note with it: compound 10 nM, anti-human CD3 10 ug/ml, 24 hours. On the procedure: as §1, with “USA).” for “USA). It was found from the test results of the following table that the compounds of the examples of the present invention could be used to regulate the expression of IFNγ.”

Assay [4] deals with MM.1S cells. The assay can be described thus: Effect of the compound on the proliferation of MM.1S cells (MTS). The assay is classed as cell-based. The note with it: Homo sapiens, MM1.S, 168 h, 7 days, read-out: Cell inhibitory activity (IC50). In short, it runs like this: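 In 1640 medium + 10% FBS, 20,000 cells per well were treated with 5-fold compound dilutions at 0.2% DMSO for 7 days at 37° C., 5% CO2. MTS was read after 3–4 h as OD490−OD690, inhibition was calculated against DMSO and blank wells, and IC50 was fitted; three independent experiments were run.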

The target of assay [5] is T1, CRBN (Homo sapiens, UniProt Q96SW2).
T1 construct: lyse the blood tumor Mino cells, and centrifuged to obtain a clear cell lysate; endogenous in cells; host or cells: Mino cells (mantle cell lymphoma), lysate
T1 sequence (Q96SW2 whole entry): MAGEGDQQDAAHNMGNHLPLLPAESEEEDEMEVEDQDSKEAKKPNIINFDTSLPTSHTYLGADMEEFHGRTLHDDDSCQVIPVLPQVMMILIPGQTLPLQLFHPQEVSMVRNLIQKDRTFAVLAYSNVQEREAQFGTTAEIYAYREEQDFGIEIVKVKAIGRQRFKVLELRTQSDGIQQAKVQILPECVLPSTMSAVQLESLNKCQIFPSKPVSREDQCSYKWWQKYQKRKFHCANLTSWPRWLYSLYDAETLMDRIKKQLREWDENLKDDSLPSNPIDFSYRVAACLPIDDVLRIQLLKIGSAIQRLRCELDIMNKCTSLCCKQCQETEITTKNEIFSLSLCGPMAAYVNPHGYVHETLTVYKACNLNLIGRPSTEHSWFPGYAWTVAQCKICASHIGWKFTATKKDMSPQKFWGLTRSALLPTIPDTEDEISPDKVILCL
The experiment in a line: Verification of interaction between compound and CRBN (elution from thalidomide FG beads, Western blotting). The settings on record: Mino cell lysate, 25° C., 15 minutes, Western blotting with CRBN antibody. Further details: dose or concentration left out as unconfirmed. The assay is classed as binding. The source says:
Studies have shown that lenalidomide immunomodulators in hematological tumor cell lines regulate the activity of CRBN-ubiquitin ligase complex by binding to CRBN, selectively induce ubiquitination and degradation of transcription factors IKZF1 and IKZF3, thereby achieving the role of treating malignant hematological tumors (Science, 2014, 343, 301; Science, 2014, 343, 305; Nature, 2015, 523, 183). By using high-efficiency affinity magnetic nanoparticles “FG beads”, thalidomide analogues were pre-attached to the magnetic beads, and the thalidomide FG beads could catch CRBN protein (Leukemia, 2012, 26, 2326; Science, 2010, 327, 1345). In this experiment, NP-400 cell lysate was used to lyse the blood tumor Mino cells, and centrifuged to obtain a clear cell lysate and divided it into three samples evenly. Thalidomide FG beads were added to the three samples, and the Thalidomide FG beads and the cell lysate were combined and incubated at 4° C. for 6 hours. After the incubation was completed, separated the magnetic beads with a magnetic stand, resuspended the separation with NP-400 lysate, repeated 3 times to obtain magnetic beads removed excess cell lysate. […] The eluate was denatured by heating with SDS Loading Buffer, and the amount of CRBN in each sample was detected by Western blotting with CRBN antibody (Proteintech).

In assay [6] the test system is Mino cells. The assay can be described thus: Effect of the compound on the proliferation of Mino cells (MTS). The assay is classed as cell-based. The settings on record: Homo sapiens, 72 h, 3 days, read-out: Inhibitory activity (IC50). On the procedure:
Mino cells were cultured with 1640 plus […] and collected. The cell concentration was diluted according to the action time of 3 days, and 90 ul cell suspension was added to each well of the 96-well cell plate to make the cell count to be 8000. 10 ul of DMSO with a final concentration of 0.2% was added to the control cell wells. The compound was diluted 5-fold with the 10 mM stock solution, and 10 ul was also added to the compound cell wells (the final concentration of DMSO was 0.2%). The cells were placed in a 37° C., […] incubator and incubated for 3 days. After preparing the reaction solution according to the MTS kit (Promega, G5430), 20 μL was added to each well, incubated in a 37° C., 5% CO2 incubator for 3-4 h. Read the 490 nm absorbance value with a microtiter plate, and used the 690 nm absorbance value as the background value and OD490-OD690 as the final initial data. The formula for calculating the inhibition rate of the compound was: inhibition rate=(OD DMSO-ODcompound)/(ODDMSO-Oblank)×100%. The compound's proliferation inhibition IC50 was fitted by Graph Pad Prism 5.0. The experiment was repeated three times, and three parallel experiments were used to calculate the average and standard deviation each time.

Bounds are passed on as bounds.

With `O=C1CCC(N2Cc3c(OCc4cn(-c5ccc(OC(F)(F)F)cc5)nn4)cccc3C2=O)C(=O)N1` (stereo not drawn) [CCC-135 (compound 17)], in assay [1], the “Increase multiple of IFNγ expression” value is listed as more than 1.5. The inhibition at 0.01 µM in assay [2] was more than 50%. Further, the “Increase multiple of IL-2 Expression” value in assay [3] is more than 3.

For `O=C1CCC(N2Cc3c(OCc4cn(-c5ccc(OC(F)(F)F)cc5)nn4)cccc3C2=O)C(=O)N1` (stereo not drawn) [Compound 17], the IC50 in assay [4] and in assay [6] was less than 150 nM in each case. Also, the “Elution of CRBN from thalidomide FG beads” value in assay [5] is listed as “can elute CRBN from the magnetic beads bound to thalidomide”.
